From ChEMBL document CHEMBL4196216, “Dinghupeptins A-D, Chymotrypsin Inhibitory Cyclodepsipeptides Produced by a Soil-Derived Streptomyces” (J Nat Prod, 2018)
Activity calls are given as the source filed them. The calls are words filed in the database; no cut-off is given here. Numbered stars: 1 amine (or outer) side, 2 acyl side, 3 side chain; on linkers, the order of the positions; unused ones are H or OH. Bridge positions count the residues as written; N and C are the ends. Square brackets hold non-standard residues; d marks the D form. Peptide text beside a SMILES is read from it. * marks the point of attachment. X1 = CO[C@@H]1CC[C@@H](C(=O)[*:2])N1[*:1]; NMeY = CN[C@@H](Cc1ccc(O)cc1)C(=O)O; Tigloyl = C/C=C(\C)C(=O)*; NHCH2CH2OH = OCCN*

Experiments:
Chymotrypsinogen A [1] = biological target: T1, Chymotrypsinogen A (Bos taurus, UniProt P00766); assay: Inhibition of bovine pancreas alpha-chymotrypsin using N-succinyl-Gly-Gly-Phe-p-nitroanilide as substrate incubated for 15 mins followed by substrate addition measured every 30 secs
[2] = biological target: Pancreatic elastase (Sus scrofa) (UniProt P08419+P00772); assay: Inhibition of porcine pancreas elastase up to 100 uM using N-succinyl-Ala-Ala-Ala-p-nitroanilide as substrate incubated for 15 mins followed by substrate addition measured every 30 secs; assay type: protein assay
HeLa [3] = assay: Cytotoxicity against human HeLa cells after 72 hrs by MTT assay; assay type: functional, cell-based
MCF7 [4] = assay: Cytotoxicity against human MCF7 cells after 72 hrs by MTT assay; assay type: functional, cell-based
A549 [5] = assay: Growth inhibition of human A549 cells up to 50 uM after 72 hrs by MTT assay; assay type: functional
MCF7 [6] = assay: Growth inhibition of human MCF7 cells up to 50 uM after 72 hrs by MTT assay; assay type: functional
Trypsin (Sus scrofa) = Trypsin (Sus scrofa) (UniProt P00761); assay: Inhibition of porcine pancreas trypsin up to 100 uM using N-alpha-benzoyl-DL-Arg-p-nitroanilide hydrochloride as substrate incubated for 15 mins followed by substrate addition measured every 30 secs
HeLa [7] = assay: Growth inhibition of human HeLa cells up to 50 uM after 72 hrs by MTT assay; assay type: functional
A549 [8] = assay: Cytotoxicity against human A549 cells after 72 hrs by MTT assay; assay type: functional, cell-based
Chymotrypsinogen A [9] = biological target: T1, Chymotrypsinogen A; assay: Competitive inhibition of bovine pancreas alpha-chymotrypsin using N-succinyl-Gly-Gly-Phe-p-nitroanilide as substrate incubated for 15 mins followed by substrate addition measured every 30 secs by double-reciprocal Lineweaver-Burk plot analysis
[10] = biological target: Chymotrypsinogen A (Bos taurus) (UniProt P00766); assay: Competitive inhibition of bovine pancreas alpha-chymotrypsin using N-succinyl-Gly-Gly-Phe-p-nitroanilide as substrate incubated for 15 mins followed by substrate addition measured every 30 secs by Dixon plot analysis
[11] = biological target: Chymotrypsinogen A (Bos taurus) (UniProt P00766); assay: Inhibition of bovine pancreas alpha-chymotrypsin up to 100 uM using N-succinyl-Gly-Gly-Phe-p-nitroanilide as substrate incubated for 15 mins followed by substrate addition measured every 30 secs

Sequence of Trypsin (Sus scrofa) (P00761 whole entry): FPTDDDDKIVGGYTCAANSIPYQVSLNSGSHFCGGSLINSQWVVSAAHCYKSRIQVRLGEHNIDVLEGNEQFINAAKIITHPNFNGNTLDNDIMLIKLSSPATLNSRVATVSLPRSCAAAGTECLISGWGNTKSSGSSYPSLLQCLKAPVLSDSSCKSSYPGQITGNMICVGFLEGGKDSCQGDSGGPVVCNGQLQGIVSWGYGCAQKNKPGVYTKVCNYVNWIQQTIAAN

## C/C=C(\C)C(=O)N[C@@H](CCC(N)=O)C(=O)N[C@@H]1C(=O)N[C@@H](CCC(=O)NCCO)C(=O)N2[C@H](OC)CC[C@H]2C(=O)N[C@@H](Cc2ccccc2)C(=O)N(C)[C@@H](Cc2ccc(O)cc2)C(=O)N[C@@H](C)C(=O)O[C@@H]1C (Tigloyl-QTE(NHCH2CH2OH)[X1]F[NMeY]A; ester 2-C)
Chymotrypsinogen A [1]
  IC50: 23100 nM
[2]
  inhibition: inactive
HeLa [3]
  Activity: inactive
MCF7 [4]
  Activity: inactive
A549 [5]
  growth inhibition (GI): <30%
MCF7 [6]
  growth inhibition (GI): <30%
Trypsin (Sus scrofa)
  inhibition: inactive
HeLa [7]
  growth inhibition (GI): <30%
A549 [8]
  Activity: inactive

## C/C=C(\C)C(=O)N[C@@H](CCC(N)=O)C(=O)N[C@@H]1C(=O)N[C@@H](CCC(=O)NCCO)C(=O)N[C@H]2CC[C@@H](OC)N(C2=O)[C@@H](Cc2ccccc2)C(=O)N(C)[C@@H](Cc2ccc(O)cc2)C(=O)N[C@@H](C)C(=O)O[C@@H]1C
Chymotrypsinogen A [1]
  IC50: 1100 nM
[2]
  inhibition: inactive
HeLa [3]
  Activity: inactive
MCF7 [4]
  Activity: inactive
A549 [5]
  growth inhibition (GI): <30%
MCF7 [6]
  growth inhibition (GI): <30%
Trypsin (Sus scrofa)
  inhibition: inactive
HeLa [7]
  growth inhibition (GI): <30%
A549 [8]
  Activity: inactive
Chymotrypsinogen A [9]
  Ki: 630 nM
[10]
  inhibition: Active

## C/C=C(\C)C(=O)N[C@@H](CCC(N)=O)C(=O)N[C@@H]1C(=O)N[C@@H](CCC(=O)NCCO)C(=O)N2CCC[C@H]2C(=O)N[C@@H](Cc2ccccc2)C(=O)N(C)[C@@H](Cc2ccc(O)cc2)C(=O)N[C@@H](C)C(=O)O[C@@H]1C (Tigloyl-QTE(NHCH2CH2OH)PF[NMeY]A; ester 2-C)
[11]
  inhibition: inactive
[2]
  inhibition: inactive
HeLa [3]
  Activity: inactive
MCF7 [4]
  Activity: inactive
A549 [5]
  growth inhibition (GI): <30%
MCF7 [6]
  growth inhibition (GI): <30%
Trypsin (Sus scrofa)
  inhibition: inactive
HeLa [7]
  growth inhibition (GI): <30%
A549 [8]
  Activity: inactive

## C/C=C(\C)C(=O)N[C@@H](CCC(N)=O)C(=O)N[C@@H]1C(=O)N[C@@H](CCC(=O)NCCO)C(=O)N[C@H]2CC[C@@H](O)N(C2=O)[C@@H](Cc2ccccc2)C(=O)N(C)[C@@H](Cc2ccc(O)cc2)C(=O)N[C@@H](C)C(=O)O[C@@H]1C
Chymotrypsinogen A [1]
  IC50: 2100 nM
[2]
  inhibition: inactive
HeLa [3]
  Activity: inactive
MCF7 [4]
  Activity: inactive
A549 [5]
  growth inhibition (GI): <30%
MCF7 [6]
  growth inhibition (GI): <30%
Trypsin (Sus scrofa)
  inhibition: inactive
HeLa [7]
  growth inhibition (GI): <30%
A549 [8]
  Activity: inactive
